Series [1] is described as follows: Collection of Sc^3+ from silicate soil (Example 25). As to conditions: digested spiked silicate soil solution (20 ml); 1a 100 mg; 24 h. The method, then: Silicate soil (1000 g) was spiked with […] (767 mg). A sample (200 mg) was weighted to Teflon vial followed by adding concentrated HCl (9 ml) and HNO3 (3 ml) solutions. The mixture was heated under microwave for 50 min followed by adding HF (3 ml) and microvawe heating was continued until solids were dissolved totally. The resulting solution was treated with 4% H3BO3 (10 ml) with heating and sample A (5 ml) was taken. The rest of the solution (20 ml) was treated with 1a (100 mg) at room temperature for 24 h. After filtration trough 0.2 μm syringe filter Sc^3+ concentration before and after treated was determined by using AAS method to give 87% recovery of Sc^3+.

Series [2] in a line: Collection of gold from TS 5 (Example 21). As to conditions: Au^3+ spiked TS 5, pH 3.0, 1a 5 g. The method, then:
(§1) A test solution containing 1-15 mg/l of Al^3+, Fe^2/3+, Mg^2+, Mn^2+, Ni^2+ and Zn^2+; 0.1-0.9 mg/l of Ca^2+ and Na^+; and trace amount of other Cr^3+, Co^2+, Cu^2+, Eu^3+, La^3+, Nd^3+, Y^3+, UO2^2+ and Nb^5+ cations were prepared.
TS 5 (100 ml) was spiked with Au^3+ (87.7 mg/ml) Merch Titrisol® standard solution. After pH of the mixture was adjusted to 3.0 by HNO3 sample A was taken followed by adding 1a (5 g). The mixture was stirred at room temperature for 24 h and a sample B was taken. Samples A and B were filtrated separately trough 0.2 μm syringe filter and the concentration of selected element in both solution was determined by using ICP-AES method. The expulsion percent for selected elements were determined from the concentration differences between the samples A and B. Results of gold recovery from TS 5 is given in Table 15.

Series [3] can be described thus: Recycling and regeneration of solid bisphosphonate material (Example 27). Conditions: 1a 700 mg. The method, then:
Compound 1a (700 mg) was weighed on sintered disc (porosity G-4) and aqueous CuCl2x2 H2O (20 ml) solution containing ca. 47 700 ppm of copper was passed slowly through the powder under vacuum. […] After the sintered disc was dry, aqueous HCl (25 ml, 2M) was passed slowly through the sintered disc. During this regeneration process solid bisphoshonate material on sintered disc turned from blue to white and filtered HCl solution was pale blue. The same procedure using the original 1a powder on sintered disc and a fresh CuCl2x2 H2O (20 ml) solution was repeated 20 times. The copper concentrations measured by AAS of the filtered HCl solution was 2294 ppm, 859 ppm and 713 ppm after first, 10th and 20th regeneration cycle, respectively. The amount of 1a after the last regeneration step was 630 mg (90% of the original amount).

Series [4] can be described thus: Solubility of the compounds, molybdenum blue method, UV/Vis 880 nm (Example 6). The series is classed as physicochemical. Conditions: saturated aqueous solution. An excerpt: The low solubility is achieved by using long carbon chain(s) or aromatic ring(s) in the bisphosphonate structure I. Advantageously, compound I contains 7-16 carbon atoms either in chain, branched chain or cyclic structure or in combination of these structural units between A and X, and preferably in the chain starting from the P-C-P bridging carbon and the number of heteroatomic functional groups excluding the phosphorous functionalities are limited to two or three groups. The solubility decreases even more if compound I contains functional groups which are capable to form twitter ions with each other. Typical examples of twitter ions are acids (e.g., —CO2H or —PO3H2) and bases (amines) in the same molecule. Solubilities of selected bisphosphonate compounds I were determined with UV/Vis spectrophotometer at 880 nm using molybdenum blue method (Finnish Standard Association SFS 3026: Determination of phosphate in water. Finnish Standard Association SFS, Helsinki Finland, 1986).
Solubilities of selected compounds were determined with UV/Vis Spectrophotometer at 880 nm using molybdenum blue method from saturated aqueous samples solutions (Finnish Standard Association SFS 3026: Determination of phosphate in water. Finnish Standard Association SFS, Helsinki Finland, 1986).

Series [5] can be described thus: Simultaneous collection of Al, Ga and V from TS 5 at pH 0.5 (Example 23). Conditions: spiked TS 5, pH 0.5, 1a 10 g. The method, then:
as §1
TS 5 (100 ml) was spiked with known amounts of Al^3+, Ga^3+ and V^4+ Merch Titrisol® standard solutions. After pH of the mixture was adjusted to 0.5 by HNO3 sample A was taken followed by adding 1a (10 g). The mixture was stirred at room temperature for 24 h and sample B was taken. Samples A and B were filtrated separately trough 0.2 μm syringe filter and the concentrations of the studied elements in both solution were determined by using ICP-AES method. The expulsion percent for each element were determined from the concentration differences between the sample A and B. The experimental results are given in Table 17.

This is an account of results in patent US20140263071A1, “METHOD FOR COLLECTING METALS” (CHEMEC OY AB, priority 2011, published 2014).

Molecules are shown by their SMILES. Like-named read-outs stand apart in the source and are kept apart here. Marks after values point to notes of the source that are not given here. Bounds are passed on as bounds.

Regarding `NCCCCCCCCCCC(O)(P(=O)(O)O)P(=O)(O)O` [Compound 1a, 11-Amino-1-hydroxyundecane-1,1-diyldiphosphonic acid], the “recovery of Sc^3+” value in series [1] stood at 87%. The “Expulsion [%]” value in series [2] (Al^3+) is listed as 87.9%; in series [2] (Au^3+) it was 65.0^1) %; in series [2] (Cr^3+), 2.6%; in series [2] (Fe^2/3+), ≥ 96.6^2) %; in series [2] (Mg^2+), 0%; in series [2] (Mn^2+), 0%. The “Expulsion [%]” value in series [2] (Ni^2+) was 1.3%; in series [2] (Zn^2+), 1.4%; in series [5] (Al^3+) it was 99.8^1) %; in series [5] (Cr^3+), 0%; in series [5] (Fe^2/3+), ≥ 97.0^4) %; in series [5] (Ga^3+), 93.2^2) %. Also, the “Expulsion [%]” value is listed as 0% in series [5] (Mg^2+); 9% in series [5] (Mn^2+); 0% in series [5] (Ni^2+); 99.7^3) % in series [5] (V^4+); 23% in series [5] (Zn^2+). Besides, the figures for the “copper concentration of the filtered HCl solution” value in series [3] (after 10th regeneration cycle), in series [3] (after 20th regeneration cycle) and in series [3] (after first regeneration cycle) were 859 ppm, 713 ppm and 2294 ppm, respectively. Further, the solubility was 59 mg/L in series [4] and 10 mg/L in series [4] (read-out: mg/l P (solubility calculated as elemental phosphorus)).
